Measurements published in PubChem BioAssay AID328 (DTP/NCI, 2004).
Values joined by “and” are separate entries in the source; they are usually repeats but may differ in a detail not shown here. Equal values may be shown once. Toxic doses and inconclusive results are not listed.

Tested on: BDF1 mice, P388 leukemia ip, median survival T/C
Test: NCI In Vivo Anticancer Drug Screen. Data for tumor model P388 Leukemia (intraperitoneal) in B6D2F1 (BDF1) mice
Details: endpoint: median survival time, higher = longer survival
How it was run: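 Vehicle-dosed animals serve as the reference; survival of compound-dosed, tumour-implanted mice is divided by it.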

[1] = dose: 50.0 mg/kg/injection, schedule: Q01DX009 (ip), vehicle: saline
[2] = dose: 100.0 mg/kg/injection, schedule: Q01DX009 (ip), vehicle: saline
[3] = dose: 100.0 mg/kg/injection, schedule: Q04DX003 (ip), vehicle: saline
[4] = dose: 200.0 mg/kg/injection, schedule: Q04DX003 (ip), vehicle: saline
[5] = dose: 400.0 mg/kg/injection, schedule: Q04DX003 (ip), vehicle: saline
[6] = dose: 100.0 mg/kg/injection, schedule: Q01DX009 (ip), vehicle: saline with Tween-80

Question: Which T/C (dose: 50.0 mg/kg/injection, schedule: Q01DX001 (ip), vehicle: saline sonified) does the source give for `N#CCC(=O)N1Cc2cc3ccccc3nc2C1` here?
Answer: The T/C was 100 % of control.

Question: What about the T/C (dose: 100.0 mg/kg/injection, schedule: Q01DX001 (ip), vehicle: saline sonified) of the same compound?
Answer: The T/C was 100 % of control.

Question: What about the T/C (dose: 200.0 mg/kg/injection, schedule: Q01DX001 (ip), vehicle: saline sonified) of the same compound?
Answer: The T/C was 100 % of control.

Question: What does the source list for `N#CC(=C=[N-])[n+]1ccccc1`?
Answer: T/C (dose: 3.12 mg/kg/injection, schedule: Q01DX009 (ip), vehicle: Klucel (hydroxypropylcellulose) (HPC)): 110 % of control; T/C (dose: 6.25 mg/kg/injection, schedule: Q01DX009 (ip), vehicle: Klucel (hydroxypropylcellulose) (HPC)): 110 % of control; T/C (dose: 12.5 mg/kg/injection, schedule: Q01DX009 (ip), vehicle: Klucel (hydroxypropylcellulose) (HPC)): 100 % of control; T/C (dose: 18.0 mg/kg/injection, schedule: Q01DX009 (ip), vehicle: Klucel (hydroxypropylcellulose) (HPC)): 100 % of control; T/C (dose: 28.0 mg/kg/injection, schedule: Q01DX009 (ip), vehicle: Klucel (hydroxypropylcellulose) (HPC)): 115 % of control

Question: For `CC(=O)OCc1ccc(-n2c(C(F)(F)F)nc3nc(Cl)c(Cl)nc32)o1`, which T/C [1] is on record?
Answer: The T/C was 100 % of control.

Question: And the T/C (dose: 50.0 mg/kg/injection, schedule: Q04DX003 (ip), vehicle: saline)?
Answer: Its T/C is 108 % of control.

Question: And the T/C [2]?
Answer: The T/C was 107 % of control.

Question: And the T/C [3]?
Answer: The T/C was 103 % of control.

Question: What about the T/C [4] of the same compound?
Answer: The T/C was 101 % of control.

Question: And the T/C [5]?
Answer: The T/C was 100 % of control.

Question: Which T/C (dose: 100.0 mg/kg/injection, schedule: Q01DX001 (ip), vehicle: Klucel (hydroxypropylcellulose) (HPC)) does the source give for `O=[N+]([O-])c1cccc(/C=C/C=C/c2ccc(S(=O)(=O)F)cc2Cl)c1` here?
Answer: The T/C was 100 % of control.

Question: What about the T/C (dose: 200.0 mg/kg/injection, schedule: Q01DX001 (ip), vehicle: Klucel (hydroxypropylcellulose) (HPC)) of the same compound?
Answer: The T/C was 95 % of control.

Question: What about the T/C (dose: 400.0 mg/kg/injection, schedule: Q01DX001 (ip), vehicle: Klucel (hydroxypropylcellulose) (HPC)) of the same compound?
Answer: Its T/C is 95 % of control.

Question: For `c1ccc(CNc2ncncc2-c2ccccc2)cc1`, which T/C (dose: 50.0 mg/kg/injection, schedule: Q01DX009 (ip), vehicle: saline with Tween-80) is on record?
Answer: Its T/C is 98 % of control.

Question: And the T/C [6]?
Answer: Its T/C is 105 % of control.

Question: And the T/C (dose: 200.0 mg/kg/injection, schedule: Q01DX009 (ip), vehicle: saline with Tween-80)?
Answer: The T/C was 99 % of control.

Question: With `CCN(CC)CCN1C(=O)c2cccc3cccc(c23)C1=O` as the compound, how does the T/C [1] read?
Answer: The T/C was 105 % of control.

Question: And the T/C (dose: 66.0 mg/kg/injection, schedule: Q01DX009 (ip), vehicle: saline)?
Answer: The T/C was 109 % of control.

Question: And the T/C [3]?
Answer: Its T/C is 110 % of control.

Question: And the T/C (dose: 150.0 mg/kg/injection, schedule: Q01DX009 (ip), vehicle: saline)?
Answer: Its T/C is 172 % of control and 181 % of control.

Question: What about the T/C [4] of the same compound?
Answer: The T/C was 95 % of control.

Question: `Cn1c(O)c(C=N)c(=O)[nH]c1=O` was tested. Which T/C [2] did it give?
Answer: Its T/C is 100 % of control.

Question: And the T/C [3]?
Answer: Its T/C is 100 % of control.

Question: What about the T/C [4] of the same compound?
Answer: Its T/C is 92 % of control.

Question: And the T/C (dose: 400.0 mg/kg/injection, schedule: Q01DX009 (ip), vehicle: saline)?
Answer: The T/C was 109 % of control.

Question: What about the T/C [5] of the same compound?
Answer: The T/C was 107 % of control.

Question: With `CSc1ncc(CO)c(N)n1` as the compound, how does the T/C (dose: 100.0 mg/kg/injection, schedule: Q01DX009 (ip), vehicle: Klucel (hydroxypropylcellulose) (HPC)) read?
Answer: Its T/C is 91 % of control.

Question: What about the T/C (dose: 200.0 mg/kg/injection, schedule: Q01DX009 (ip), vehicle: Klucel (hydroxypropylcellulose) (HPC)) of the same compound?
Answer: The T/C was 95 % of control.

Question: What about the T/C (dose: 400.0 mg/kg/injection, schedule: Q01DX009 (ip), vehicle: Klucel (hydroxypropylcellulose) (HPC)) of the same compound?
Answer: Its T/C is 87 % of control.

Question: What does the source list for `Cc1c2ccccc2cc2cccc[n+]12`?
Answer: T/C (dose: 0.63 mg/kg/injection, schedule: Q01DX010 (ip), vehicle: saline): 100 % of control; T/C (dose: 1.25 mg/kg/injection, schedule: Q01DX010 (ip), vehicle: saline): 100 % of control; T/C (dose: 2.5 mg/kg/injection, schedule: Q01DX010 (ip), vehicle: saline): 105 % of control and 120 % of control; T/C (dose: 10.0 mg/kg/injection, schedule: Q01DX010 (ip), vehicle: saline): 150 % of control; T/C (dose: 40.0 mg/kg/injection, schedule: Q04DX003 (ip), vehicle: saline): 150 % of control; T/C (dose: 80.0 mg/kg/injection, schedule: Q04DX003 (ip), vehicle: saline): 100 % of control

Question: For `CN=S(=O)(OCC#CCOS(=O)(=NC)c1ccc(C)cc1)c1ccc(C)cc1` (configuration not stated), which T/C (dose: 50.0 mg/kg/injection, schedule: Q01DX009 (ip), vehicle: saline + alcohol) is on record?
Answer: Its T/C is 151 % of control.

Question: And the T/C (dose: 100.0 mg/kg/injection, schedule: Q01DX009 (ip), vehicle: saline + alcohol)?
Answer: The T/C was 87 % of control.

Question: What about the T/C [6] of the same compound?
Answer: The T/C was 94 % of control.
